These results are taken from patent publication US20100249408A1, “USE OF NOVEL COMPOUND HAVING AFFINITY FOR AMYLOID, AND PROCESS FOR PRODUCTION OF THE SAME” (NIHON MEDI-PHYSICS CO., LTD., priority 2007, published 2010).

Each structure is given as a SMILES string.

One data set deals with T1, amyloid (amylin) (Homo sapiens, UniProt P10997).
T1 construct: Amylin (human) (manufactured by Wako) was dissolved in phosphate buffer (pH 7.4); purchased Wako
T1 sequence (P10997 34-70 limits assumed): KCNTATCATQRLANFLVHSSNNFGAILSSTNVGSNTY
In words: Inhibition of binding of Thioflavin T to amyloid derived from amylin. To be noted: Thioflavin T 5 μmol/L, amyloid 2.6 μmol/L. Here is the method: Amylin is an amyloid accumulating in pancreas of type II diabetes.
(3) The amyloid suspension was dissolved in 50 mM phosphate buffer (pH 7.4) at a concentration of amylin of 15 μM.
(4) Samples in which each compound for evaluation and amyloid were dissolved in a 50 mM phosphate buffer (pH 7.4) at final concentrations shown in Table 9 were prepared.
(5) A sample in which 100 μL of 50 mM phosphate buffer (pH 7.4) and 50 μL of 50 mM glycin-NaOH buffer (pH 8.5) were mixed was made as a blank, and subjected to the same procedure as in (4) and used for a calculation of inhibition ratio (hereinafter referred to as BG).
(6) The microplate filled with the sample solutions was left to stand at room temperature for 30 hours. Then, fluorescence strength of each sample solution was measured (measurement conditions: excitation wavelength of 446nm, emission wavelength of 490 nm) with microplate reader (type: SPECTRA MAX GEMINI XS, manufactured by Molecular Devices) (hereinafter, A denotes the fluorescence strength in a sample with zero (0) concentration of each compound for evaluation, and B denotes the fluorescence strength in a sample with 1.5 μmol/L or higher concentration of each compound for evaluation).
(7) Using the fluorescence strength measured above in (6), the following formula (5): […]
was used to determine the inhibition ratio.

Data set [1] concerns the target T2, amyloid (aggregated Aβ1-40) (Homo sapiens, UniProt P05067).
T2 construct: Aβ1-40 (Peptide Institute) was dissolved in phosphate buffer (pH 7.4); purchased Peptide Institute
The experiment in a line: Measurement of amyloid affinity: in vitro binding test, inhibition of [125I]3′-I-BTA-0 binding. Here is the method:
Affinity of the present compounds with amyloid was examined by the following in vitro binding tests.
(1) Aβ1-40 (Peptide Institute) was dissolved in phosphate buffer (pH 7.4) and shaken at 37° C. for 62-72 hours, to obtain a suspension of aggregated Aβ (concentration: 1 mg/mL equivalent, hereinafter referred to as amyloid suspension in these Examples).
(3) According to the method described in a literature (Wang, Y., et al., J. Labeled Compounds Radiopharmaceut. 44, 5239 (2001)), [^125I]2-(3′-iodo-4′-aminophenyl)benzothiazole (hereinafter referred to as [^125I]3′-I-BTA-0) was prepared from a labeling precursor 2-(4′-aminophenyl)benzothiazole, and dissolved in ethanol. [^125I]sodium iodide of 12-71 MBq (10-30 μL in volume) was used for the production, to obtain [^125I]3′-I-BTA-0 of 1-22 MBq immediately after the synthesis.
(5) Samples in which [^125I]3′-I-BTA-0, each compound for evaluation and amyloid were dissolved in a 0.1% bovine serum albumin-containing phosphate buffer (pH 7.4) at final concentrations shown in Table 2 were prepared. The resulting samples were placed in each well (about 0.3 mL in volume) of a 96-well microplate.
(6) The microplate filled with the sample solutions was shaken at a given rate (400 rpm) at 22° C. for 3 hours. Then, each sample solution was filtered through a glass fiber filter (trade name: Mulutiscreen™-FC, manufactured by Millipore), to separate the [^125I3′-I-BTA-0 attached to amyloid from the [^125I]3′-I-BTA-0 free from amyloid.
(7) The glass fiber filter used for the filtration of each sample solution was washed with a 0.1% bovine serum albumin-containing phosphate buffer (pH 7.4) (0.5 mL×5), and radioactivity of the glass fiber filter was measured with an autowell gamma system (manufactured by Aloka, Type: ARC-301B).
(8) Separately, a solution containing 15 μmol/L of 6-Me-BTA-2, 400 pmol/L of [^125I]3′-I-BTA-0 and 1 μmol/L of Aβ1-40 in a 0.1% bovine serum albumin-containing phosphate buffer (pH 7.4) was prepared and subjected to the same procedures as described above in (6) and (7) to measure a radioactivity level. The measured radioactivity level was defined as the background radioactivity level, and used in the calculation of the inhibition ratio (hereinafter referred to as BG).
(9) Using the radioactivity levels measured above in (7) and (8), the inhibition ratio was determined by the following formula (1).
A graph in which values converted by probit transformation from the obtained inhibition ratios were plotted relative to logarithms of concentrations of compounds for evaluation was prepared to obtain an approximate straight line by the least square method. Using the line, the concentration of each compound for evaluation was determined, at which the radioactivity level is half of the level of the sample free from each compound for evaluation, and was defined as a 50% inhibition concentration of each compound (hereinafter referred to as IC50% value). Using the value as an indicator, affinity of each compound for evaluation with amyloid (aggregated Aβ1-40) was evaluated.

Data set [2] concerns Salmonella typhimurium TA98 and TA100. The experiment in a line: Reverse mutation test (Ames test), overall judgment. Conditions: TA98 and TA100, with and without S9mix, up to 5000 μg/plate (geometric ratio 4). The format is cell-based. The procedure:
(§1) In order to examine gene mutagenicity of Compounds 1, 2 and 4, reverse mutation test using Salmonella typhimurium TA98 and TA100 (hereinafter referred to as Ames test) was conducted.
(§2) The test was conducted without addition of S9mix and with addition of S9mix. Dimethylsulfoxide was used as a negative control. A positive control was 2-(2-furyl)-3-(5-nitro-2-furyl)acrylamide in case S9mix was not added, and 2-aminoanthracene in case S9 mix was added.
(§3) The amount of each sample to be added to the test plate was 7 dosages (geometric ratio 4) with the maximum dose being 5000 μg/plate. After a sample to be examined and a strain (TA98 or TA100), or a sample to be examined, S9mix and the strain were mixed together, the mixture was multilayered using soft agar on a medium of a test plate, and then incubated at 37° C. for 48 hours.
(§4) In order to examine gene mutagenicity of Compound 8, reverse mutation test using Salmonella typhimurium TA98 and TA100 (hereinafter referred to as Ames test) was conducted.
(§5) The test was conducted without addition of S9mix and with addition of S9mix. Dimethylsulfoxide was used as a negative control. A positive control was 2-(2-furyl)-3-(5-nitro-2-furyl)acrylamide in case S9mix was not added, and 2-aminoanthracene in case S9mix was added.
(§6) The amount of Compound 8 to be added to the test plate was 7 dosages (geometric ratio 3) with the maximum dose being 5000 μg/plate. After Compound 8 and a strain (TA98 or TA100), or Compound 8, S9mix and the strain were mixed together, the mixture was multilayered using soft agar on a medium of a test plate, and then incubated at 37° C. for 48 hours.
In general terms: The Ames test detects mutagens through reverse mutation in bacteria.

Data set [3] concerns Salmonella typhimurium TA100. The experiment in a line: Reverse mutation test (Ames test), TA100. The format is cell-based. To be noted: Table 6; 7 dosages (geometric ratio 4), maximum 5000 μg/plate. Here is the method: as §1, §2, §3, §4, §5, §6
Data set [4] deals with Salmonella typhimurium TA98. The experiment in a line: Reverse mutation test (Ames test), TA98. Conditions: Table 6; 7 dosages (geometric ratio 4), maximum 5000 μg/plate. The format is cell-based. Here is the method:
as §1, §2, §3, §4, §5, §6

Data set [5] concerns the target T3, intracerebral amyloid (aggregated Aβ1-42 injected into amygdaloid nucleus) (Homo sapiens, UniProt P05067).
T3 construct: Aβ1-42 (manufactured by Peptide Institute) was dissolved in phosphate buffer (pH 7.4); purchased Peptide Institute
The experiment in a line: ex vivo autoradiogram using rats of amyloid injected model (Examples II-13, II-14). Conditions: rat with Aβ1-42 amyloid suspension in one amygdaloid nucleus, tail vein, brain removed 60 minutes after injection. Also noted: species or system male Wistar rat. The procedure: As a control, 2.5 μL of a phosphate buffered physiological saline solution (pH 7.4) was injected into an amygdaloid nucleus on the other side of the rat. The rats were examined 1 day after the injection of the amyloid suspension and the phosphate buffered physiological saline solution (pH 7.4).
(4) Brain was removed 60 minutes after the injection to prepare a brain slice of 10 μm in thickness with a microtome (type: CM3050S, manufactured by LEICA).

Data set [6] is described as follows: Transferability into brain and clearance (Examples II-11, II-12, Comparative Example II-1). Conditions: rats, intravenous injection, three animals. The procedure: Using the Compounds 10 and 11, a time course change of radioactive accumulation in brain of male Wistar rats (7-week old) was measured.
The rats were sacrificed by bleeding from abdominal artery, and brains were removed and subjected to measurement of mass of brains and further subjected to measurement of radioactivity (hereinafter referred to as A in this Example) with a single channel analyzer (detector type: SP-20 manufactured by OHYO KOKEN KOGYO Co., Ltd.) 2, 5, 30 and 60 minutes after the injection. Also, radioactivity (hereinafter referred to as B in this Example) of the rest of the whole body was measured in the same manner as above. Using these measurement results, radioactive accumulation per unit weight of brain (% ID/g) at the respective time points were calculated in accordance with the following formula (4).
Three animals were used for experiment at the respective time points.

A short description of data set [7]: Partition coefficient based on the octanol extraction method (logPoctanol). Conditions: octanol / 10 mmol/L phosphate buffer (pH 7.4), radioactivity count. Here is the method:
10 μL each of the prepared sample solution was respectively added to 2 mL of octanol, further, 2 mL of 10 mmol/L phosphate buffer (pH 7.4) was added, and stirred for 30 seconds. […] Using the obtained radioactivity count, log Poctanol was calculated in accordance with the equation (2).

For data set [8] the following is noted: International Publication No. WO03/106439; cited from earlier work.
For data set [9] the following is noted: [125I]-labeled compounds, normal mice; cited from earlier work.

T3 sequence (P05067 672-713): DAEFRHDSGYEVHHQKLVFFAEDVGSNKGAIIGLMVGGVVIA
T2 sequence (P05067 672-711 limits assumed): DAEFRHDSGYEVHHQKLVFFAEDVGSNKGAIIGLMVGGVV

With `Oc1ccc(-c2cn3cc(Br)ccc3n2)cc1` [Compound 1, 6-bromo-2-(4′-hydroxyphenyl)imidazo[1,2-a]pyridine], the “Inhibition ratio (%) of binding of amyloid (amylin) to Thioflavin T” value (shortened to “Inhibition ratio (%)”) at amyloid (amylin) (compound 1.5 μmol/L) came to 8.7%. Further, the “Inhibition ratio (%)” value on amyloid (amylin) (compound 15 μmol/L) is listed as 41.3%. For the same molecule, the “Inhibition ratio (%)” value at amyloid (amylin) (compound 30 μmol/L) came out at 27.0%. In [1], the IC50 (in general, the concentration at which inhibition is half-maximal) was 4.4 nM. The “Judgment in the Ames test (gene mutagenicity)” value in data set [2] is on record as “negative”. For the same molecule, in [3], the “Mutagenicity, TA100, with addition of S9mix” value was “Negative” and the “Mutagenicity, TA100, without addition of S9mix” value is “Negative”. Also, in [4], the “Mutagenicity, TA98, with addition of S9mix” value was “Negative” and the “Mutagenicity, TA98, without addition of S9mix” value is “Negative”.
With `Oc1ccc(-c2cn3cc(I)ccc3n2)cc1` [Compound 2, 2-(4′-hydroxyphenyl)-6-iodoimidazo[1,2-a]pyridine], the “Inhibition ratio (%)” value on amyloid (amylin) (compound 1.5 μmol/L) is on record as 11.2%. Also, the “Inhibition ratio (%)” value on amyloid (amylin) (compound 15 μmol/L) is 16.3%. Moreover, the “Inhibition ratio (%)” value on amyloid (amylin) (compound 30 μmol/L) came to 32.0%. Besides, the IC50 in [1] was 46 nM. In data set [2], the “Judgment in the Ames test (gene mutagenicity)” value is “negative”. In addition, in [3], the “Mutagenicity, TA100, with addition of S9mix” value was “Negative” and the “Mutagenicity, TA100, without addition of S9mix” value is “Negative”. In data set [4], the “Mutagenicity, TA98, with addition of S9mix” value was “Negative” and the “Mutagenicity, TA98, without addition of S9mix” value was “Negative”.
On to `Oc1ccc(-c2cn3cc([123I])ncc3n2)cc1` [Compound 10, [^123I]-2-(4′-hydroxyphenyl)-6-iodoimidazo[1,2-a]pyrazine], for which the “Accumulation of radioactivity at intracerebral amyloid (ex vivo autoradiogram)” value in data set [5] is reported as “a marked accumulation of radioactivity was observed in the amygdaloid nucleus on the side to which the amyloid suspension was injected”. Moreover, the “Radioactive accumulation in brain per unit weight” value in data set [6] (after 2 min.) was found to be 0.62 % ID/g; in [6] (after 5 min.), 0.33 % ID/g; in data set [6] (after 30 min.), 0.08 % ID/g; in [6] (after 60 min.), 0.02 % ID/g. For the same molecule, in data set [7], the logPoctanol value turned out to be 2.3.
In the case of `Oc1ccc(-c2cn3cccc([123I])c3n2)cc1` [Compound 11, [^123I]-2-(4′-hydroxyphenyl)-8-iodoimidazo[1,2-a]pyridine], in [5], the “Accumulation of radioactivity at intracerebral amyloid (ex vivo autoradiogram)” value is “a marked accumulation of radioactivity was observed in the amygdaloid nucleus on the side to which the amyloid suspension was injected”. Further, the “Radioactive accumulation in brain per unit weight” value in data set [6] (after 2 min.) is 0.65 % ID/g; in data set [6] (after 5 min.) it was 0.43 % ID/g; in data set [6] (after 30 min.), 0.09 % ID/g; in [6] (after 60 min.) it was 0.03 % ID/g. In addition, in data set [7], the logPoctanol value came to 3.0.
On to `CC(=C(C#N)C#N)c1ccc2cc(N(C)CCF)ccc2c1` [FDDNP, 2-(1-{6-[(2-fluoroethyl)(methyl)amino]-2-naphthyl}ethylidene)malononitrile], for which, in data set [8], the “Result in reverse mutation test” value is “positive”.
As to `CN(C)c1ccc(-c2nc3ccc(I)cc3o2)cc1` [IBOX, 6-iodo-2-[4′-(N,N-dimethylamino)phenyl]benzoxazole], in [9], the “Clearance from normal tissues” value is listed as “insufficient in clearance from normal tissues”.
Take `CN(C)c1ccc(-c2cn3cc(I)ccc3n2)cc1` [IMPY, 6-iodo-2-[4′-(N,N-dimethylamino)phenyl]imidazo[1,2-a]pyridine]: the “Result in reverse mutation test” value in data set [8] is given as “positive”.
On to `CN(C)c1ccc(-c2nc3ccc(I)cc3s2)cc1` [TZDM, 6-iodo-2-[4′-(N,N-dimethylamino)phenyl]benzothiazole], for which, in data set [9], the “Clearance from normal tissues” value is “insufficient in clearance from normal tissues”.
For the molecule `CN(C)c1ccc(/C=C/c2ccc(I)cc2)cc1` [m-I-SB, (E)-4-dimethylamino-4′-iodostilbene], the “Clearance from normal tissues” value in data set [9] is listed as “insufficient in clearance from normal tissues”.
